Consider 2 compounds from US8748666B2, “Preparation methods of methyl-D3-amine and salts thereof” (Suzhou Zelgen Biopharmaceutical Co., Ltd., priority 2010, dated 2014).

Each structure is given as a SMILES string.

This assay concerns human hepatocellular carcinoma SMMC-7721. Put plainly: Inhibition of tumor growth of human hepatocellular carcinoma SMMC-7721 in nude mice xenograft model. It is filed as in vivo, Balb/c nu/nu nude mice. How it is done:
70 Balb/c nu/nu nude mice, 6 weeks old, female, were bought from Shanghai Experimental Animal Resource Center (Shanghai B&K Universal Group Limited).
SMMC-7721 cells were commercially available from Shanghai Institutes for Biological Science, CAS (Shanghai, China).
The establishment of tumor nude mice xenograft model: SMMC-7721 cells in logarithmic growth period were cultured. After cell number was counted, the cells were suspended in 1×PBS, and the concentration of the cell suspension was adjusted to 1.5×10^7/ml. The tumor cells were inoculated under the skin of right armpit of nude mice with a 1 ml syringe, 3×10^6/0.2 ml/mice. 70 nude mice were inoculated in total.
When the tumor size reached 30-130 mm^3, 58 mice were divided randomly into the different groups. The difference of the mean value of tumor volume in each group was less than 10% and drugs were started to be administrated.
Animal body weight and tumor size were tested twice a week during the experiment. Clinical symptoms were recorded every day. At the end of the administration, the tumor size was recorded by taking pictures. One mouse was sacrificed in each group and tumor tissue was taken and fixed in 4% paraformaldehyde. Observation was continued after the administration, and when the mean size of tumor was larger than 2000 mm^3, or the dying status appeared, the animals were sacrificed, gross anatomy was conducted, and the tumor tissue was taken and fixed in 4% paraformaldehyde.
The formula for calculating the tumor volume (TV) is: TV=a×b^2/2, wherein a, b independently represent the length and the breadth of the tumor. The formula for calculating the relative tumor volume (RTV) is: RTV=Vt/V0, wherein V0 is the tumor volume at the beginning of the administration, and Vt is the […] when measured. The index for evaluating the antitumor activity is relative tumor increment rate T/C (%), and the formula is: T/C (%)=(TRTV/CRTV)×100%, wherein, TRTV is the RTV of the treatment group, and CRTV is the RTV of the negative control group.
Evaluation standard for efficacy: it is effective if the relative tumor increment rate T/C (%) is ≦40% and p<0.05 by statistics analysis.
(In general: A xenograft is tissue or cells of one species grown in another, often human tumour cells in immunodeficient mice.)

Setting [1] is: 10 mg/kg po qd x 2 weeks, at the end of administration.
[2] abbreviates: 30 mg/kg po qd x 2 weeks, at the end of administration.
The mark [3] stands for this setting: 100 mg/kg po qd x 2 weeks, at the end of administration (day 15).

Take `[2H]C([2H])([2H])NC(=O)c1cc(Oc2ccc(NC(=O)Nc3ccc(Cl)c(C(F)(F)F)c3)cc2)ccn1` [CM4306, 4-(4-(3-(4-chloro-3-(trifluoromethyl)phenyl)ureido)-phenoxy)-2-(N-methyl)picolinamide, reference compound]: the “relative tumor increment rate T/C %” value runs as follows: under setting [1], 56.9%; under setting [2], 40.6%; under setting [3], 32.2%.
On to `[2H]C([2H])([2H])NC(=O)c1cc(Oc2ccc(NC(=O)Nc3ccc(Cl)c(C(F)(F)F)c3)cc2)ccn1` [CM4307, 4-(4-(3-(4-chloro-3-(trifluoromethyl)phenyl)ureido)-phenoxy)-N-(methyl-d3)picolinamide], for which the “relative tumor increment rate T/C %” value by setting is: under setting [1], 53.6%; under setting [2], 40.8%; under setting [3], 19.6%. Also, the “increase of relative value of tumor inhibition compared with CM4306 (32.2%/19.6%−1=64%)” value (100 mg/kg po qd x 2 weeks) is on record as “about 60%”.
